What was measured:
MT-4 cells = experiment: Test B: Cytotoxicity Assay (protocol of Test A, uninfected cells); format: cell-based; details: uninfected MT-4 cells, 5 days, CellTiter-Glo
Description: (§1) Test B: Cytotoxicity Assay Compound cytotoxicity and the corresponding CC50 values was determined using the same protocol as described in the antiviral assay (Test A) except that uninfected cells were used.

HIV-IIIb = experiment: Test A: Antiviral Assay in MT4 Cells; format: cell-based, HIV-1; details: Human immunodeficiency virus 1, IIIB, MT4, 120 h, read-out: % inhibition at 3 μM
Description: Test A: Antiviral Assay in MT4 Cells
For the antiviral assay, 40 μL of 1× test concentration of 3-fold serially diluted compound in culture medium with 10% FBS was added to each well of a 384-well plate (10 concentrations) in quadruplicate. MT-4 cells were next mixed with HIV-IIIb at an m.o.i of 0.003 for 1 hour, after which time 35 μL of virus/cell mixture (2000 cells) was immediately added to each well containing 40 μL of diluted compound. The plates were then incubated at 37° C. for 5 days. After 5 days of incubation, 25 μl of 2× concentrated CellTiter-Glo™ Reagent (catalog #G7571, Promega Biosciences, Inc., Madison, Wis.) was added to each well containing MT-4 cells. Cell lysis was carried out by incubating at room temperature for 10 min and then chemiluminescence was read.

[1] = Test B: Cytotoxicity Assay (protocol of Test A, uninfected cells); format: cell-based; details: human, uninfected MT-4 cells, CellTiter-Glo
Description: as §1

Compound	CC50 (MT-4 cells)	inhibition at 3 µM (HIV-IIIb)	CC50 at 5 days [1]
CC(=O)Oc1ccc(-c2ccc(F)c(C(N)=O)c2)c([C@H](Cc2cc(F)cc(F)c2)NC(=O)Cn2nc(C(F)F)c3c2C(F)(F)CCC3(F)F)n1 [Compound 20B, (S)-5-(3-carbamoyl-4-fluorophenyl)-6-(1-(2-(3-(difluoromethyl)-4,4,7,7-tetrafluoro-4,5,6,7-tetrahydro-1H-indazol-1-yl)acetamido)-2-(3,5-difluorophenyl)ethyl)pyridin-2-yl acetate]	> 53.2 µM	–	–
NC(=O)c1cc(-c2cc(N)cnc2[C@H](Cc2cc(F)cc(F)c2)NC(=O)Cn2nc(C(F)(F)F)c3c2C(F)(F)[C@@H]2C[C@H]32)ccc1F [Compound 31, 5-(5-amino-2-((S)-1-(2-((3bS,4aR)-5,5-difluoro-3-(trifluoromethyl)-3b,4,4a,5-tetrahydro-1H-cyclopropa[3,4]cyclopenta[1,2-c]pyrazol-1-yl)acetamido)-2-(3,5-difluorophenyl)ethyl)pyridin-3-yl)-2-fluorobenzamide]	–	96%	19.5 µM
NC(=O)c1cc(-c2cc(N3C(=O)c4ccccc4C3=O)cnc2[C@H](Cc2cc(F)cc(F)c2)NC(=O)Cn2nc(C(F)(F)F)c3c2C(F)(F)[C@@H]2C[C@H]32)ccc1F [Compound 30K, 5-(2-((S)-1-(2-((3bS,4aR)-5,5-difluoro-3-(trifluoromethyl)-3b,4,4a,5-tetrahydro-1H-cyclopropa[3,4]cyclopenta[1,2-c]pyrazol-1-yl)acetamido)-2-(3,5-difluorophenyl)ethyl)-5-(1,3-dioxoisoindolin-2-yl)pyridin-3-yl)-2-fluorobenzamide]	–	48%	> 53.2 µM
Cn1nc(NS(C)(=O)=O)c2c(Cl)ccc(-c3nc(N)cnc3C(Cc3cc(F)cc(F)c3)NC(=O)Cn3nc(C(F)F)c4c3C(F)(F)[C@@H]3C[C@H]43)c21 (stereo partly drawn) [Compound 59D, N-(1-(5-amino-3-(4-chloro-1-methyl-3-(methylsulfonamido)-1H-indazol-7-yl)pyrazin-2-yl)-2-(3,5-difluorophenyl)ethyl)-2-((3bS,4aR)-3-(difluoromethyl)-5,5-difluoro-3b,4,4a,5-tetrahydro-1H-cyclopropa[3,4]cyclopenta[1,2-c]pyrazol-1-yl)acetamide]	–	85%	> 46.8 µM
Cn1nc(NS(C)(=O)=O)c2cccc(-c3ccc(N4CC(N)CC4=O)nc3[C@H](Cc3cc(F)cc(F)c3)NC(=O)Cn3nc(C(F)(F)F)c4c3C(F)(F)[C@@H]3C[C@H]43)c21 (stereo partly drawn) [Compound 43B, N-((1S)-1-(6-(4-amino-2-oxopyrrolidin-1-yl)-3-(1-methyl-3-(methylsulfonamido)-1H-indazol-7-yl)pyridin-2-yl)-2-(3,5-difluorophenyl)ethyl)-2-((3bS,4aR)-5,5-difluoro-3-(trifluoromethyl)-3b,4,4a,5-tetrahydro-1H-cyclopropa[3,4]cyclopenta[1,2-c]pyrazol-1-yl)acetamide]	–	83%	16.9 µM
NC(=O)c1cc(-c2cc(N3C(=O)c4ccccc4C3=O)cnc2[C@H](Cc2cc(F)cc(F)c2)NC(=O)Cn2nc(C(F)F)c3c2C(F)(F)CCC3(F)F)ccc1F [Compound 32, (S)-5-(2-(1-(2-(3-(difluoromethyl)-4,4,7,7-tetrafluoro-4,5,6,7-tetrahydro-1H-indazol-1-yl)acetamido)-2-(3,5-difluorophenyl)ethyl)-5-(1,3-dioxoisoindolin-2-yl)pyridin-3-yl)-2-fluorobenzamide]	–	37%	> 53.2 µM

Source: patent US9050344B2, “Therapeutic compounds” (Gilead Sciences, Inc., priority 2013, dated 2015)
